Measurements published in patent US20260215430A1, “HERBICIDAL COMPOSITIONS” (SYNGENTA CROP PROTECTION AG, priority 2022, published 2026).

Key:
[1] = tested on: SSBL (AMAPA, CHEAL, AMBEL); assay: Postemergence field study on natural weed populations, small seeded broadleaf; format: in vivo; settings: 28-31 DAA
Experimental: In a postemergence field study on a natural weed populations. Herbicides were applied to 4-5″ weeds and efficacy was evaluated at 14 and 28-35 days after application. Rates were in g ai/ha. Data shown was small seeded broadleaf (SSBL; AMPA=Amaranthus palmeri; CHEAL=Chenopodium Album L.; AMBEL=Ambrosia Artemisiifolia L.) control 28-31 DAA. 100% was completely dead and 0% was no plant response.

[2] = tested on: CHEAL; assay: Post-emergence study L-GLU+BIR, CHEAL control; format: in vivo, Chenopodium Album L.; settings: 9 days after treatment
Excerpt: (§1) In a post-emergence study of AMPA, CHEAL, and Setaria faberi (SETFA) applications were done to 2 to 4-inch weeds with a spray volume of 15 gallons/acre. Treatments applied are described below, and further included an adjuvant.
The results of CHEAL control with L-GLU+BIR (bicyclopyrone) mixtures at 9 days after treatment are summarized in the below matrix, where bolded values represent synergy as calculated by Colby.

[3] = tested on: AMAPA; assay: Post-emergence study L-GLU+BIR, AMAPA control; format: in vivo, Amaranthus palmeri; settings: 9 days after treatment
Excerpt: as §1
The results of AMAPA control with L-GLU+BIR (bicyclopyrone) mixtures at 9 days after treatment are summarized in the below matrix, where bolded values represent synergy as calculated by Colby.

[4] = tested on: SETFA; assay: Post-emergence study L-GLU+BIR, SETFA control; format: in vivo, Setaria faberi
Excerpt: as §1
The results of SETFA control with L-GLU+BIR (bicyclopyrone) mixtures at 7 and 14 days after treatment, respectively, are summarized in the below matrix, where bolded values represent synergy as calculated by Colby.

[5] = tested on: All weeds; assay: Postemergence field study on natural weed populations, all weeds; format: in vivo; settings: 28-31 DAA
[6] = tested on: AMAPA; assay: Post-emergence study L-GLU+MST, AMAPA control; format: in vivo, Amaranthus palmeri; settings: 7 days after treatment
Excerpt: (§2) In a post-emergence study of AMPA, CHEAL, and ABUTH (Velvet Leaf (Abutilon theophrast)) applications were done to 2 to 4-inch weeds with a spray volume of 15 gallons/acre. Treatments applied are described below, and further included an adjuvant.
The results of AMAPA control with L-GLU+MST mixtures at 7 days after treatment are summarized in the below matrix, where bolded values represent synergy as calculated by Colby.

[7] = tested on: Grasses; assay: Postemergence field study on natural weed populations, grasses; format: in vivo; settings: 28-31 DAA
[8] = tested on: CHEAL; assay: Post-emergence study L-GLU+MST, CHEAL control; format: in vivo, Chenopodium Album L.; settings: 7 days after treatment
Excerpt: as §2
The results of CHEAL control with L-GLU+MST mixtures at 7 days after treatment are summarized in the below matrix, where bolded values represent synergy as calculated by Colby.

[9] = tested on: ABUTH; assay: Post-emergence study L-GLU+MST, ABUTH control; format: in vivo, Velvet Leaf (Abutilon theophrast); settings: 7 days after treatment
Excerpt: as §2
The results of ABUTH control with L-GLU+MST mixtures at 7 days after treatment are summarized in the below matrix, where bolded values represent synergy as calculated by Colby.

CP(=O)(O)CC[C@H](N)C(=O)O [L-glufosinate]
control, SSBL (AMAPA, CHEAL, AMBEL) ([1]; L-glufosinate 328 g/ha): 55%
% Control CHEAL ([2]; L-GLU 5 g ai/ha alone): 0%
% Control CHEAL ([2]; L-GLU 10 g ai/ha alone): 13%
% Control CHEAL ([2]; L-GLU 30 g ai/ha alone): 38%
% Control CHEAL ([2]; L-GLU 60 g ai/ha alone): 88%
% Control CHEAL ([2]; L-GLU 120 g ai/ha alone): 100%
% Control AMAPA ([3]; L-GLU 5 g ai/ha alone): 17%
% Control AMAPA ([3]; L-GLU 10 g ai/ha alone): 23%
% Control AMAPA ([3]; L-GLU 30 g ai/ha alone): 57%
% Control AMAPA ([3]; L-GLU 60 g ai/ha alone): 87%
% Control AMAPA ([3]; L-GLU 120 g ai/ha alone): 93%
% Control SETFA ([4]; L-GLU 5 g ai/ha alone, 14 Days after Treatment): 10%
% Control SETFA ([4]; L-GLU 5 g ai/ha alone, 7 days after treatment): 13%
% Control SETFA ([4]; L-GLU 10 g ai/ha alone, 14 Days after Treatment): 35%
% Control SETFA ([4]; L-GLU 10 g ai/ha alone, 7 days after treatment): 48%
% Control SETFA ([4]; L-GLU 30 g ai/ha alone, 14 Days after Treatment): 65%
% Control SETFA ([4]; L-GLU 30 g ai/ha alone, 7 days after treatment): 85%
% Control SETFA ([4]; L-GLU 60 g ai/ha alone, 14 Days after Treatment): 89%
% Control SETFA ([4]; L-GLU 60 g ai/ha alone, 7 days after treatment): 95%
% Control SETFA ([4]; L-GLU 120 g ai/ha alone, 14 Days after Treatment): 100%
% Control SETFA ([4]; L-GLU 120 g ai/ha alone, 7 days after treatment): 100%
control, All weeds ([5]; L-glufosinate 328 g/ha): 70%
% Control AMAPA ([6]; L-GLU 5 g ai/ha alone): 27%
% Control AMAPA ([6]; L-GLU 10 g ai/ha alone): 33%
% Control AMAPA ([6]; L-GLU 30 g ai/ha alone): 83%
% Control AMAPA ([6]; L-GLU 60 g ai/ha alone): 97%
% Control AMAPA ([6]; L-GLU 120 g ai/ha alone): 100%
control, Grasses ([7]; L-glufosinate 328 g/ha): 83%
% Control CHEAL ([8]; L-GLU 5 g ai/ha alone): 3%
% Control CHEAL ([8]; L-GLU 10 g ai/ha alone): 8%
% Control CHEAL ([8]; L-GLU 30 g ai/ha alone): 72%
% Control CHEAL ([8]; L-GLU 60 g ai/ha alone): 90%
% Control CHEAL ([8]; L-GLU 120 g ai/ha alone): 90%
% Control ABUTH ([9]; L-GLU 5 g ai/ha alone): 2%
% Control ABUTH ([9]; L-GLU 10 g ai/ha alone): 8%
% Control ABUTH ([9]; L-GLU 30 g ai/ha alone): 38%
% Control ABUTH ([9]; L-GLU 60 g ai/ha alone): 67%
% Control ABUTH ([9]; L-GLU 120 g ai/ha alone): 87%

bicyclopyrone
% Control CHEAL ([2]; BIR 1.56 g ai/ha alone): 58%
% Control CHEAL ([2]; BIR 3.13 g ai/ha alone): 75%
% Control CHEAL ([2]; BIR 6.25 g ai/ha alone): 88%
% Control CHEAL ([2]; BIR 12.5 g ai/ha alone): 92%
% Control CHEAL ([2]; BIR 25 g ai/ha alone): 96%
% Control CHEAL ([2]; BIR 50 g ai/ha alone): 97%
% Control AMAPA ([3]; BIR 1.56 g ai/ha alone): 27%
% Control AMAPA ([3]; BIR 3.13 g ai/ha alone): 37%
% Control AMAPA ([3]; BIR 6.25 g ai/ha alone): 48%
% Control AMAPA ([3]; BIR 12.5 g ai/ha alone): 53%
% Control AMAPA ([3]; BIR 25 g ai/ha alone): 80%
% Control AMAPA ([3]; BIR 50 g ai/ha alone): 90%
% Control SETFA ([4]; BIR 3.13 g ai/ha alone, 7 Days after Treatment): 28%
% Control SETFA ([4]; BIR 3.13 g ai/ha alone, 14 Days after Treatment): 23%
% Control SETFA ([4]; BIR 6.25 g ai/ha alone, 7 Days after Treatment): 35%
% Control SETFA ([4]; BIR 6.25 g ai/ha alone, 14 Days after Treatment): 32%
% Control SETFA ([4]; BIR 12.5 g ai/ha alone, 7 Days after Treatment): 62%
% Control SETFA ([4]; BIR 12.5 g ai/ha alone, 14 Days after Treatment): 45%
% Control SETFA ([4]; BIR 25 g ai/ha alone, 7 Days after Treatment): 73%
% Control SETFA ([4]; BIR 25 g ai/ha alone, 14 Days after Treatment): 58%
% Control SETFA ([4]; BIR 50 g ai/ha alone, 7 Days after Treatment): 78%
% Control SETFA ([4]; BIR 50 g ai/ha alone, 14 Days after Treatment): 75%
% Control SETFA ([4]; BIR 100 g ai/ha alone, 7 Days after Treatment): 77%
% Control SETFA ([4]; BIR 100 g ai/ha alone, 14 Days after Treatment): 90%

CS(=O)(=O)c1ccc(C(=O)C2C(=O)CCCC2=O)c([N+](=O)[O-])c1 [Mesotrione]
control, SSBL (AMAPA, CHEAL, AMBEL) ([1]; Mesotrione 105 g/ha): 26%
control, All weeds ([5]; Mesotrione 105 g/ha): 44%
% Control AMAPA ([6]; MST 1.5 g ai/ha alone): 20%
% Control AMAPA ([6]; MST 3 g ai/ha alone): 30%
% Control AMAPA ([6]; MST 6 g ai/ha alone): 37%
% Control AMAPA ([6]; MST 12 g ai/ha alone): 72%
% Control AMAPA ([6]; MST 24 g ai/ha alone): 85%
% Control AMAPA ([6]; MST 60 g ai/ha alone): 85%
control, Grasses ([7]; Mesotrione 105 g/ha): 35%
% Control CHEAL ([8]; MST 1.5 g ai/ha alone): 78%
% Control CHEAL ([8]; MST 3 g ai/ha alone): 85%
% Control CHEAL ([8]; MST 6 g ai/ha alone): 92%
% Control CHEAL ([8]; MST 12 g ai/ha alone): 93%
% Control CHEAL ([8]; MST 24 g ai/ha alone): 93%
% Control CHEAL ([8]; MST 60 g ai/ha alone): 90%
% Control ABUTH ([9]; MST 1.5 g ai/ha alone): 85%
% Control ABUTH ([9]; MST 3 g ai/ha alone): 83%
% Control ABUTH ([9]; MST 6 g ai/ha alone): 95%
% Control ABUTH ([9]; MST 12 g ai/ha alone): 92%
% Control ABUTH ([9]; MST 24 g ai/ha alone): 96%
% Control ABUTH ([9]; MST 60 g ai/ha alone): 92%
